The test has as its target T1, human PRMT1 (Homo sapiens, UniProt Q99873).
T1 construct: GST-tagged PRMT1; made in house; host or cells: High Five insect cells (baculovirus)
Put plainly: biochemical. The text has this:
General Materials. S-adenosylmethionine (SAM), S-adenosylhomocysteine (SAH), bicine, Tween20, dimethylsulfoxide (DMSO), bovine skin gelatin (BSG), and Tris(2-carboxyethyl)phosphine hydrochloride solution (TCEP) were purchased from Sigma-Aldrich at the highest level of purity possible. ^3H-SAM was purchase from American Radiolabeled Chemicals with a specific activity of 80 Ci/mmol. 384-well streptavidin Flashplates were purchased from PerkinElmer.
Substrates. Peptide representative of human histone H4 residues 36-50 was synthesized with an N-terminal linker-affinity tag motif and a C-terminal amide cap by 21st Century Biochemicals. The peptide was purified by high-performance liquid chromatography (HPLC) to greater than 95% purity and confirmed by liquid chromatography mass spectrometry (LC-MS). The sequence was Biot-Ahx-[…]-amide (SEQ ID NO.:1).
Molecular Biology: Full-length human PRMT1 isoform 1 (NM_001536.5) transcript clone was amplified from an HEK 293 cDNA library, incorporating flanking 5′ sequence encoding a FLAG tag ([…]) (SEQ ID NO.:2) fused directly to Met 1 of PRMT1. The amplified gene was subcloned into pFastBacI (Life Technologies) modified to encode an N-terminal GST tag and a TEV cleavage sequence
Protein Expression. Recombinant baculovirus were generated according to Bac-to-Bac kit instructions (Life Technologies). Protein over-expression was accomplished by infecting exponentially growing High Five insect cell culture at 1.5×10^6 cell/ml with 1:100 ratio of virus. Infections were carried out at 27° C. for 48 hours, harvested by centrifugation, and stored at −80° C. for purification.
Protein Purification. […] GST-tagged PRMT1 was eluted with 50 mM Tris, 2 mM glutathione, pH 7.8, dialysed in buffer A and concentrated to 1 mg/mL. The purity of recovered protein was 73%. Reference: Wasilko, D. J. and S. E. Lee: “TIPS: titerless infected-cells preservation and scale-up” Bioprocess J., 5 (2006), pp. 29-32.
General Procedure for PRMT1 Enzyme Assays on Peptide Substrates. The assays were all performed in a buffer consisting of 20 mM Bicine (pH=7.6), 1 mM TCEP, 0.005% BSG, and 0.002% Tween 20, prepared on the day of use. Compounds in 100% DMSO (1 ul) were spotted into a polypropylene 384-well V-bottom plates (Greiner) using a Platemate Plus outfitted with a 384-channel head (Thermo Scientific). DMSO (1 ul) was added to Columns 11, 12, 23, 24, rows A-H for the maximum signal control and 1 ul of SAH, a known product and inhibitor of PRMT1, was added to columns 11, 12, 23, 24, rows I-P for the minimum signal control. A cocktail (40 ul) containing the PRMT1 enzyme was added by Multidrop Combi (Thermo-Fisher). The compounds were allowed to incubate with PRMT1 for 30 min at room temperature, then a cocktail (10 ul) containing SAM and peptide was added to initiate the reaction (final volume=51 ul). The final concentrations of the components were as follows: PRMT1 was 0.5 nM, ^3H-SAM was 200 nM, non-radiolabeled SAM was 1.5 uM, peptide was 20 nM, SAH in the minimum signal control wells was 1 mM, and the DMSO concentration was 2%. The assays were stopped by the addition of non-radiolabeled SAM (10 ul) to a final concentration of 300 uM, which dilutes the ^3H-SAM to a level where its incorporation into the peptide substrate is no longer detectable. 50 ul of the reaction in the 384-well polypropylene plate was then transferred to a 384-well Flashplate and the biotinylated peptides were allowed to bind to the streptavidin surface for at least 1 hour before being washed once with 0.1% Tween20 in a Biotek EL×405 plate washer. The plates were then read in a PerkinElmer TopCount plate reader to measure the quantity of ^3H-labeled peptide bound to the Flashplate surface, measured as disintegrations per minute (dpm) or alternatively, referred to as counts per minute (cpm).
Where dpm=disintegrations per minute, cmpd=signal in assay well, and min and max are the respective minimum and maximum signal controls. […]

[1] abbreviates: biochemical evaluation, peptide substrate, read-out: PRMT1 IC50.
The mark [2] stands for this setting: single experiment or average of multiple experiments, read-out: PRMT1 biochemical evaluation (numerical).

Molecules are shown by their SMILES. Like-named read-outs stand apart in the source and are kept apart here.

T1 sequence (Q99873 other isoform, or with tags, fused parts or gaps): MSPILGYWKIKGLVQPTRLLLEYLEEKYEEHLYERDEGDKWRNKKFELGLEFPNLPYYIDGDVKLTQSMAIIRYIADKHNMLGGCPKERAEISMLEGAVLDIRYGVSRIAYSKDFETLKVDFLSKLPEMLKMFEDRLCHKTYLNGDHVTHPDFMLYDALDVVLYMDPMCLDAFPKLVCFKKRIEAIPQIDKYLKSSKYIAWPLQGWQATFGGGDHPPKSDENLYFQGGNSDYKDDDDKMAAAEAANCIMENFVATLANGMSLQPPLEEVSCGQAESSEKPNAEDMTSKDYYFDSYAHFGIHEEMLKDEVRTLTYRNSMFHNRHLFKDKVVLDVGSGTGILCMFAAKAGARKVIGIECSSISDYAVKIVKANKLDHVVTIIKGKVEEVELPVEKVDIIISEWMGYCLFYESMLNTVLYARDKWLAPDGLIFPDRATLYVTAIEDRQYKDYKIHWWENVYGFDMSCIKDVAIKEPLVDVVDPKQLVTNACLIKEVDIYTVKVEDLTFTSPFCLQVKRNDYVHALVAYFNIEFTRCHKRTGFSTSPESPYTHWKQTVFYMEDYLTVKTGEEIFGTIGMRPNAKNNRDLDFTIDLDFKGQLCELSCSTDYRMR

Take `CNCCN(C)Cc1n[nH]c2ccc(N3CCC4(CCCCC4)CC3)cc12` [Compound 43, N^1-((5-(3-azaspiro[5.5]undecan-3-yl)-1H-indazol-3-yl)methyl)-N^1,N^2-dimethylethane-1,2-diamine]: the IC50 under setting [1] was less than 100 nM and the IC50 under setting [2] came out at 434 nM.
Consider `CNCCN(C)Cc1n[nH]c2ccc(C3CCOCC3)cc12` [Compound 44, N^1,N^2-dimethyl-N^1-((5-(tetrahydro-2H-pyran-4-yl)-1H-indazol-3-yl)methyl)ethane-1,2-diamine], for which the IC50 is less than 100 nM under setting [1] and 43.6 nM under setting [2].
Regarding `CNCCN(C)Cc1n[nH]c2ccc(C3=CCOCC3)cc12` [Compound 45], the IC50 was less than 100 nM under setting [1] and 37.4 nM under setting [2].
Take `CNCCN(C)Cc1n[nH]c2ccc(N3CCCCC3)cc12` [Compound 46, N^1,N^2-dimethyl-N^1-((5-(piperidin-1-yl)-1H-indazol-3-yl)methyl)ethane-1,2-diamine]: the IC50 by setting is: under setting [1], less than 100 nM; under setting [2], 21.2 nM.
For the molecule `CNCCN(C)Cc1n[nH]c2ccc(C3CCCCC3)cc12` [Compound 47, N^1-((5-cyclohexyl-1H-indazol-3-yl)methyl)-N^1,N^2-dimethylethane-1,2-diamine], the IC50 was not above 100 nM under setting [1] and 55.5 nM under setting [2].
On to `CNCCN(C)Cc1n[nH]c2ccc(C3=CCCCC3)cc12` [Compound 48], for which the IC50 is, setting by setting: under setting [1], not above 100 nM; under setting [2], 34 nM.
For `CNCCN(C)Cc1n[nH]c2ccc(Oc3ccccc3C(F)(F)F)cc12` [Compound 49], the IC50 was 3010 to 10000 nM under setting [1] and 15.7 nM under setting [2].
`CNCCN(C)Cc1n[nH]c2ccc(OCC3CCOCC3)cc12` [Compound 50]: the IC50 runs as follows: under setting [1], 3010 to 10000 nM; under setting [2], 11 nM.
On the same counts, the results for `CNCCN(C)Cc1n[nH]c2ccc(OCC3CCN(C(C)=O)CC3)cc12` [Compound 51] are 1010 to 3000 nM and 5520 nM.
On to `CNCCN(C)Cc1n[nH]c2ccc(OCC3CCCC3)cc12` [Compound 52], for which the IC50 is 1010 to 3000 nM under setting [1] and 3690 nM under setting [2].
Take `CNCCN(C)Cc1c2cc(OCc3ccc(C#N)cc3)ccc2nn1C1CCOCC1` [Compound 53]: the IC50 under setting [1] was in the range of 3010 to 10000 nM and the IC50 under setting [2] stood at 1760 nM.
For `CNCCN(C)Cc1n[nH]c2ccc(OCC3CCCCC3)cc12` [Compound 54], the IC50 is 101 to 1000 nM under setting [1] and 2000 nM under setting [2].
For the molecule `CNCCN(C)Cc1n[nH]c2ccc(Oc3ccc(C)cc3)cc12` [Compound 55], the IC50 is, setting by setting: under setting [1], less than 100 nM; under setting [2], 6550 nM.
On to `CNCCN(C)Cc1n[nH]c2ccc(Oc3ccccc3OC(C)C)cc12` [Compound 56], for which the IC50 runs as follows: under setting [1], less than 100 nM; under setting [2], 994 nM.
`CNCCN(C)Cc1n[nH]c2ccc(Oc3ccc(Cl)cc3)cc12` [Compound 57]: the IC50 reads like this: under setting [1], 101 to 1000 nM; under setting [2], 43.3 nM.
Consider `CNCCN(C)Cc1n[nH]c2ccc(OC3CCN(C(C)=O)CC3)cc12` [Compound 58, 1-(4-((3-((methyl(2-(methylamino)ethyl)amino)methyl)-1H-indazol-5-yl)oxy)piperidin-1-yl)ethan-1-one], for which the IC50 runs as follows: under setting [1], 101 to 1000 nM; under setting [2], 57.9 nM.
With `CNCCN(C)Cc1n[nH]c2ccc(Oc3ccc(OC)cc3)cc12` [Compound 59], the IC50 by setting is: under setting [1], less than 100 nM; under setting [2], 101 nM.
For `CNCCN(C)Cc1n[nH]c2ccc(Oc3ccccc3C)cc12` [Compound 60], the IC50 is, setting by setting: under setting [1], less than 100 nM; under setting [2], 353 nM.
On the same counts, the results for `CNCCN(C)Cc1n[nH]c2ccc(Oc3ccc(OC(C)C)cc3)cc12` [Compound 61] are less than 100 nM and 40.8 nM.
On to `CNCCN(C)Cc1nn(C(C)C)c2ccc(OCc3ccc(C#N)cc3)cc12` [Compound 62], for which the IC50 by setting is: under setting [1], 1010 to 3000 nM; under setting [2], 56.5 nM.
On the same counts, the results for `CCOc1ccc2[nH]nc(CN(C)CCNC)c2c1` [Compound 63] are 101 to 1000 nM and 98.6 nM.
Turning to `CNCCN(C)Cc1n[nH]c2ccc(OC(C)C)cc12` [Compound 64], the IC50 reads like this: under setting [1], not above 100 nM; under setting [2], 2630 nM.
On to `CCCOc1ccc2[nH]nc(CN(C)CCNC)c2c1` [Compound 65], for which the IC50 was not above 100 nM under setting [1] and 128 nM under setting [2].
In the case of `CNCCN(C)Cc1n[nH]c2ccc(OCc3cccc(C(N)=O)c3)cc12` [Compound 66], the IC50 is, setting by setting: under setting [1], less than 100 nM; under setting [2], 35 nM.
For the molecule `CNCCN(C)Cc1n[nH]c2ccc(Oc3cccc(OC(C)C)c3)cc12` [Compound 67], the IC50 was less than 100 nM under setting [1] and 24.8 nM under setting [2].
In the same order, the values of `CNCCN(C)Cc1n[nH]c2ccc(OCc3ccc(C(F)(F)F)cc3)cc12` [Compound 68] are 101 to 1000 nM and 91.5 nM.
For `CNCCN(C)Cc1n[nH]c2ccc(OCc3ccc(C(N)=O)cc3)cc12` [Compound 69], the IC50 is 101 to 1000 nM under setting [1] and 30.3 nM under setting [2].
On the same counts, the results for `CNCCN(C)Cc1n[nH]c2ccc(OCc3cccc(NC(C)=O)c3)cc12` [Compound 70] are 101 to 1000 nM and 188 nM.
Consider `CNCCN(C)Cc1n[nH]c2ccc(OCc3ccc(C(C)(C)C)cc3)cc12` [Compound 71], for which the IC50 was 101 to 1000 nM under setting [1] and 203 nM under setting [2].
In the case of `CNCCN(C)Cc1n[nH]c2ccc(OCc3cccc(C(F)(F)F)c3)cc12` [Compound 72], the IC50 under setting [1] is less than 100 nM and the IC50 under setting [2] stood at 182 nM.
On the same counts, the results for `CNCCN(C)Cc1n[nH]c2ccc(OCc3cccc(C(C)=O)c3)cc12` [Compound 73] are less than 100 nM and 143 nM.
Take `CNCCN(C)Cc1n[nH]c2ccc(OCc3cccc(C(C)(C)C)c3)cc12` [Compound 74]: the IC50 by setting is: under setting [1], 101 to 1000 nM; under setting [2], 23 nM.

For the origin of these results see patent US9765035B2 (priority 2013, dated 2017).
